Measured values from ChEMBL document CHEMBL4382207, “Computer-aided drug discovery of Myc-Max inhibitors as potential therapeutics for prostate cancer” (Eur J Med Chem, 2018).
Active and inactive are the calls of the source. The rule behind the calls is not given here.

How the values were obtained:
c-Myc/Max [1] = molecular target: T1, c-Myc/Max (Homo sapiens, UniProt P01106+P61244); assay: Inhibition of Myc-Max (unknown origin) expressed in human LNCAP cells assessed as reduction in transcriptional activity at 25 uM after 1 day by luciferase reporter gene assay relative to control; assay type: cell-based
T1 sequence (P01106 whole entry): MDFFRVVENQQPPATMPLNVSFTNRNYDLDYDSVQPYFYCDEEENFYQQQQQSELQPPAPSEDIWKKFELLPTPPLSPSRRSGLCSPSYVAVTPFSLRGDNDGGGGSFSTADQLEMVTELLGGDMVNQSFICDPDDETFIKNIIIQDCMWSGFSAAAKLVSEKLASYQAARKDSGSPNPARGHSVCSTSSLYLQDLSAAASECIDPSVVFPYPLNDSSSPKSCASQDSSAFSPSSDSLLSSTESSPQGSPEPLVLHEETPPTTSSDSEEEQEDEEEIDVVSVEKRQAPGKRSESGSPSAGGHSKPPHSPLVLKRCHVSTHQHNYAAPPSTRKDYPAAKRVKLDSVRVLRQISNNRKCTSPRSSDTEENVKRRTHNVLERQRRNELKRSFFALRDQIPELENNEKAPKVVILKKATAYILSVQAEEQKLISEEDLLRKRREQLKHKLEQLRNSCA
T1 sequence (P61244 whole entry): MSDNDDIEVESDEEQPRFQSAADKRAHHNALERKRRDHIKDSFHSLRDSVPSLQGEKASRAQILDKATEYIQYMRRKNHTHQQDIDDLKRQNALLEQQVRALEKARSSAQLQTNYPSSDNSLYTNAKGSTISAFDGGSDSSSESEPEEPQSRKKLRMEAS

c-Myc/Max [2] = molecular target: T1, c-Myc/Max; assay: Inhibition of Myc-Max (unknown origin) expressed in human LNCAP cells assessed as reduction in transcriptional activity after 1 day by luciferase reporter gene assay; assay type: cell-based
LNCaP [3] = assay: Cytotoxicity against human LNCAP cells assessed as reduction in cell viability after 96 hrs by prestoblue assay; assay type: functional, cell-based
LNCaP [4] = assay: Cytotoxicity against human LNCAP cells assessed as reduction in cell viability at 3 uM after 96 hrs by prestoblue assay relative to control; assay type: functional
[5] = Cytotoxicity against rat HO15.19 cells assessed as reduction in cell viability at 25 uM after 96 hrs by prestoblue assay relative to control; assay type: cell-based; conditions: read-out: INH
HO15.19 = assay: Cytotoxicity against rat HO15.19 cells assessed as reduction in cell viability at 3 uM after 96 hrs by prestoblue assay; assay type: cell-based; conditions: ho15.19, 96 h
LNCaP [6] = assay: Induction of apoptosis in human LNCAP cells assessed as increase in PARP cleavage at 6.25 to 25 uM after 48 hrs by Western blot analysis; assay type: functional, cell-based
c-Myc/Max [7] = molecular target: T1, c-Myc/Max; assay: Inhibition of biotin-labeled EBOX oligonucleotide binding to GST-tagged Myc (368 to 454 residues)/His-tagged Max (23 to 102 residues) (unknown origin) expressed in Escherichia coli BL21(DE3) incubated up to 600 secs by biolayer interferometry assay
c-Myc/Max [8] = molecular target: T1, c-Myc/Max; assay: Inhibition of full length Myc-Max (unknown origin) expressed in human PC3 cells at 12.5 to 25 uM after 24 hrs by luciferase reporter gene based mammalian two-hybrid assay; assay type: cell-based
c-Myc/Max [9] = molecular target: T1, c-Myc/Max; assay: Inhibition of Myc-Max (unknown origin) expressed in human 22rv1 cells harboring UBE2C promoter assessed as reduction in ARV7 level at 25 uM after 1 day by luciferase reporter gene assay relative to control; assay type: cell-based
c-Myc/Max [10] = molecular target: T1, c-Myc/Max; assay: Inhibition of Myc-Max (unknown origin) expressed in human 22rv1 cells harboring UBE2C promoter assessed as reduction in ARV7 level after 1 day by luciferase reporter gene assay; assay type: cell-based
c-Myc/Max [11] = molecular target: T1, c-Myc/Max; assay: Inhibition of Myc-Max (unknown origin) expressed in human 22rv1 cells harboring UBE2C promoter assessed as reduction in ARV7 level at 12.5 to 25 uM after 48 hrs by Western blot analysis; assay type: cell-based
c-Myc/Max [12] = molecular target: T1, c-Myc/Max; assay: Inhibition of biotin-labeled EBOX oligonucleotide binding to GST-tagged Myc (368 to 454 residues)/His-tagged Max (23 to 102 residues) (unknown origin) expressed in Escherichia coli BL21(DE3) at 500 uM incubated up to 600 secs by biolayer interferometry assay

Row | Structure (SMILES) | inhibition (c-Myc/Max [1]) [%] | IC50 (LNCaP [3]) [µM] | inhibition (c-Myc/Max [9]) [%] | inhibition (c-Myc/Max [10]) | also measured
1 | FC(F)(F)c1cc(NC(=S)NCc2ccccc2)cc(C(F)(F)F)c1 | 106 | 2.5 | 94 | Dose-dependent effect | IC50 (c-Myc/Max [2]): 8.9 µM; inhibition at 3 µM (LNCaP [4]): 70%; cytotoxicity at 96 h, 25 µM [5]: ≤ 40%; Activity (HO15.19): Non-Toxic; Activity (LNCaP [6]): Active; inhibition (c-Myc/Max [7]): Dose-dependent effect; inhibition (c-Myc/Max [8]): Active; inhibition (c-Myc/Max [11]): Active; inhibition (c-Myc/Max [12]): Active
2 | CC(C)(C)[C@H]1CCc2sc(C(=O)N3CCC(C(N)=O)CC3)cc2C1 | 73 | – | 58 | Dose-dependent effect | –
3 | CS(=O)(=O)Nc1ccccc1C(=O)OCc1cc(=O)oc2cc(O)ccc12 | 53 | – | – | Dose-dependent effect | –
4 | CCc1ccc(/C=C2\SC(=S)NC2=O)cc1 | 91 | 18.3 | 70 | Dose-dependent effect | –
5 | CC(=O)Nc1ccc(Nc2cc(Cl)c(C(F)(F)F)cc2[N+](=O)[O-])cc1 | 81 | – | 51 | Dose-dependent effect | –
6 | S=C(NCc1ccc(Cl)c(Cl)c1)Nc1cccnc1 | 73 | – | 50 | Dose-dependent effect | –
7 | O=C1NC(=S)S/C1=C\c1ccccc1C(F)(F)F | 98 | 11.1 | 71 | Dose-dependent effect | IC50 (c-Myc/Max [2]): 22.7 µM; Activity (LNCaP [6]): Active; inhibition (c-Myc/Max [11]): Active; inhibition (c-Myc/Max [12]): Active
8 | NC(=O)c1ccsc1NC(=O)Nc1cccc(C(F)(F)F)c1 | 95 | – | 73 | Dose-dependent effect | –
9 | O=[N+]([O-])c1ccc(Nc2ccccc2-c2ccccc2)c2nonc12 | 88 | 8.7 | – | Dose-dependent effect | inhibition (c-Myc/Max [8]): inactive; inhibition (c-Myc/Max [11]): Active; inhibition (c-Myc/Max [12]): Active
10 | CN1C(=O)/C(=C\C=C\c2ccco2)SC1=S | 78 | – | 64 | Dose-dependent effect | –
11 | O=C1/C(=C/c2cccs2)SC(=S)N1c1cccc(O)c1 | 65 | – | – | Dose-dependent effect | –
12 | O=C(CN1C(=O)NC2(CCCC2)C1=O)Nc1cccc(C(F)(F)F)c1 | 65 | – | – | Dose-dependent effect | –
